Data published in US20260124214A1, “HETEROCYCLIC COMPOUNDS FOR USE IN THE TREATMENT OF CANCER” (ARTIOS PHARMA LIMITED, priority 2021, published 2026).
pKi: −log10 of the molar value. Counter-ions that a name gives are not always drawn.

Molecular target: T1, Human Polθ polymerase domain (aa1820-2590) (Homo sapiens, UniProt O75417)
T1 construct: Human Polθ polymerase domain (aa1820-2590) was expressed in E. Coli; made in house; host or cells: E. coli
T1 sequence (O75417 1820-2590): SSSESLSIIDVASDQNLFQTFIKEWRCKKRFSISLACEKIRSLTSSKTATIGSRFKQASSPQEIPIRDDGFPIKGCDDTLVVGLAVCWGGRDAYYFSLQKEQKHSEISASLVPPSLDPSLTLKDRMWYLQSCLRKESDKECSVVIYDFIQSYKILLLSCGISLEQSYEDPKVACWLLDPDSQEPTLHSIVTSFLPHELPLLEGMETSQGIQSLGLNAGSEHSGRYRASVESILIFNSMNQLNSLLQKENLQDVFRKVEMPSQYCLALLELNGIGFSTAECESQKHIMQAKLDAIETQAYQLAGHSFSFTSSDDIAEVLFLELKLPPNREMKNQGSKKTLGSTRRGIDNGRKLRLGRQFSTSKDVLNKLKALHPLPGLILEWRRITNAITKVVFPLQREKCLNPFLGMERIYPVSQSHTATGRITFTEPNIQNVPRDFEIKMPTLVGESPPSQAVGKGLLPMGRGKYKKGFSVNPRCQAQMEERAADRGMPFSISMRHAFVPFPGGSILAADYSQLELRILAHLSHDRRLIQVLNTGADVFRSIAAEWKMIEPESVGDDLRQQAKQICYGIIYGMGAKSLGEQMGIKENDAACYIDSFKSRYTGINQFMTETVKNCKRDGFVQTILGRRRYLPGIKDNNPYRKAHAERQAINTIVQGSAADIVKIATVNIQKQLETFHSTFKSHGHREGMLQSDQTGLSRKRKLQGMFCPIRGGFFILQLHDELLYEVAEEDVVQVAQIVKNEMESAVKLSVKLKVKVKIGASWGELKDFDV
Assay: Polθ Polymerase Domain WT KI Assay (PicoGreen)
Format: biochemical
Conditions: 100 nM DNA substrate, 0.156 nM Polθ, initial rates vs inhibitor concentration
Procedure, shortened: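 E. coli-expressed human Polθ polymerase domain (aa1820-2590) on annealed DNA II Short/Long primer-template (1.2:1), in 25 mM Tris pH 7.5, NaCl, 5% glycerol, 0.01% Triton X-100, 0.1 mg/ml BSA, 1 mM DTT, 1% DMSO. EDTA-quenched timepoints to 180 min, PicoGreen fluorescence. Initial rates vs inhibitor concentration fitted four-parameter for KI.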

SMILES: CNCCNCCN1C[C@H]2CC(=O)N(c3cc(C(F)(F)F)cc(C)n3)[C@@H]2C(=O)N(C)c2cccc(C)c21 [Example 17, (3aR,11aS)-6,10-Dimethyl-1-(6-methyl-4-(trifluoromethyl)pyridin-2-yl)-5-(2-((2-(methylamino)ethyl)amino)ethyl)-1,3a,4,5,10,11a-hexahydro-2H-benzo[b]pyrrolo[2,3-f][1,4]diazocine-2,11(3H)-dione]
- pKi: 8.61

SMILES: Cc1cc(C(F)(F)F)cc(N2C(=O)C[C@@H]3CN(c4ccccn4)c4c(Cl)cccc4N(C)C(=O)[C@H]32)n1 [Example 145, (3aR,11aS)-6-Chloro-10-methyl-1-(6-methyl-4-(trifluoromethyl)pyridin-2-yl)-5-(pyridin-2-yl)-1,3a,4,5,10,11a-hexahydro-2H-benzo[b]pyrrolo[2,3-f][1,4]diazocine-2,11(3H)-dione]
- pKi: 7.52

SMILES: Cc1cc(C(F)(F)F)cc(N2C(=O)C[C@@H]3CN(CCOCCN(C)C)c4c(C)cccc4N(C)C(=O)[C@H]32)n1 [Example 90, (3aR,11aS)-5-(2-(2-(Dimethylamino)ethoxy)ethyl)-6,10-dimethyl-1-(6-methyl-4-(trifluoromethyl)pyridin-2-yl)-1,3a,4,5,10,11a-hexahydro-2H-benzo[b]pyrrolo[2,3-f][1,4]diazocine-2,11(3H)-dione]
- pKi: 9.00

SMILES: Cc1cc(C(F)(F)F)cc(N2C(=O)C[C@@H]3CN(Cc4nc5n(n4)CCNC5)c4c(F)cccc4N(C)C(=O)[C@H]32)n1 [Example 98, (3aR,11aS)-6-Fluoro-10-methyl-1-(6-methyl-4-(trifluoromethyl)pyridin-2-yl)-5-((5,6,7,8-tetrahydro-[1,2,4]triazolo[1,5-a]pyrazin-2-yl)methyl)-1,3a,4,5,10,11a-hexahydro-2H-benzo[b]pyrrolo[2,3-f][1,4]diazocine-2,11(3H)-dione]
- pKi: 8.31

SMILES: Cc1cc(C(F)(F)F)cc(N2C(=O)C[C@@H]3CN(CCCN(C)C)c4c(C)cccc4N(C)C(=O)[C@H]32)n1 [Example 128, (3aR,11aS)-5-(3-(Dimethylamino)propyl)-6,10-dimethyl-1-(6-methyl-4-(trifluoromethyl)pyridin-2-yl)-1,3a,4,5,10,11a-hexahydro-2H-benzo[b]pyrrolo[2,3-f][1,4]diazocine-2,11(3H)-dione]
- pKi: 8.86

SMILES: Cc1cc(C(F)(F)F)cc(N2C(=O)C[C@@H]3CN(CCN4CCN5C(=O)COC[C@H]5C4)c4c(Cl)cccc4N(C)C(=O)[C@H]32)n1 [Example 43, (3aR,11aS)-6-Chloro-10-methyl-1-(6-methyl-4-(trifluoromethyl)pyridin-2-yl)-5-(2-((R)-4-oxohexahydropyrazino[2,1-c][1,4]oxazin-8(1H)-yl)ethyl)-1,3a,4,5,10,11a-hexahydro-2H-benzo[b]pyrrolo[2,3-f][1,4]diazocine-2,11(3H)-dione]
- pKi: 8.52

SMILES: Cc1cc(C(F)(F)F)cc(N2C(=O)C[C@@H]3CN(CCN4CCN(C)[C@H](C)C4)c4c(C)cccc4N(C)C(=O)[C@H]32)n1 [Example 47, (3aR,11aS)-5-(2-((R)-3,4-Dimethylpiperazin-1-yl)ethyl)-6,10-dimethyl-1-(6-methyl-4-(trifluoromethyl)pyridin-2-yl)-1,3a,4,5,10,11a-hexahydro-2H-benzo[b]pyrrolo[2,3-f][1,4]diazocine-2,11(3H)-dione dihydrochloride]
- pKi: 9.22

SMILES: Cc1cc(C(F)(F)F)cc(N2C(=O)C[C@@H]3CN(C[C@@H]4CN(C)CCO4)c4c(Cl)cccc4N(C)C(=O)[C@H]32)n1 (racemic) [Example 120b, (3aR,11aS)-6-Chloro-10-methyl-1-(6-methyl-4-(trifluoromethyl)pyridin-2-yl)-5-(((S/R)-4-methylmorpholin-2-yl)methyl)-1,3a,4,5,10,11a-hexahydro-2H-benzo[b]pyrrolo[2,3-f][1,4]diazocine-2,11(3H)-dione hydrochloride]
- pKi: 8.38

SMILES: Cc1cc(C(F)(F)F)cc(N2C(=O)C[C@@H]3CN(CCCO)c4c(F)cccc4N(C)C(=O)[C@H]32)n1 [Example 127, (3aR,11aS)-6-Fluoro-5-(3-hydroxypropyl)-10-methyl-1-(6-methyl-4-(trifluoromethyl)pyridin-2-yl)-1,3a,4,5,10,11a-hexahydro-2H-benzo[b]pyrrolo[2,3-f][1,4]diazocine-2,11(3H)-dione]
- pKi: 8.14

SMILES: Cc1cc(C(F)(F)F)cc(N2C(=O)C[C@@H]3CN(CCN4CCN(C)CC4)c4ccccc4N(C)C(=O)[C@H]32)n1 [Example 13, (3aR,11aS)-10-Methyl-1-(6-methyl-4-(trifluoromethyl)pyridin-2-yl)-5-(2-(4-methylpiperazin-1-yl)ethyl)-1,3a,4,5,10,11a-hexahydro-2H-benzo[b]pyrrolo[2,3-f][1,4]diazocine-2,11(3H)-dione dihydrochloride]
- pKi: 7.29

SMILES: Cc1cc(C(F)(F)F)cc(N2C(=O)C[C@@H]3CN(CCN4CCN(C)CC4)c4c(Cl)cc(F)cc4N(C)C(=O)[C@H]32)n1 [Example 8, (3aR,11aS)-6-Chloro-8-fluoro-10-methyl-1-(6-methyl-4-(trifluoromethyl)pyridin-2-yl)-5-(2-(4-methylpiperazin-1-yl)ethyl)-1,3a,4,5,10,11a-hexahydro-2H-benzo[b]pyrrolo[2,3-f][1,4]diazocine-2,11(3H)-dione]
- pKi: 8.36

SMILES: Cc1cc(C(F)(F)F)cc(N2C(=O)C[C@@H]3CN(CCN4CCN(C)CC4)c4c(C)cccc4NC(=O)[C@H]32)n1 [Example 149, (3aR,11aS)-6-Methyl-1-(6-methyl-4-(trifluoromethyl)pyridin-2-yl)-5-(2-(4-methylpiperazin-1-yl)ethyl)-1,3a,4,5,10,11a-hexahydro-2H-benzo[b]pyrrolo[2,3-f][1,4]diazocine-2,11(3H)-dione]
- pKi: 8.49

SMILES: Cc1cc(C(F)(F)F)cc(N2C(=O)C[C@@H]3CN(C[C@@H]4CCNC4)c4c(C)cccc4N(C)C(=O)[C@H]32)n1 [Example 103, (3aR,11aS)-6,10-Dimethyl-1-(6-methyl-4-(trifluoromethyl)pyridin-2-yl)-5-(((R)-pyrrolidin-3-yl)methyl)-1,3a,4,5,10,11a-hexahydro-2H-benzo[b]pyrrolo[2,3-f][1,4]diazocine-2,11(3H)-dione hydrochloride]
- pKi: 8.61

SMILES: Cc1cc(C(F)(F)F)cc(N2C(=O)C[C@@H]3CN(CCN4CCNCC4)c4c(C)cccc4NC(=O)[C@H]32)n1 [Example 148, (3aR,11aS)-6-Methyl-1-(6-methyl-4-(trifluoromethyl)pyridin-2-yl)-5-(2-(piperazin-1-yl)ethyl)-1,3a,4,5,10,11a-hexahydro-2H-benzo[b]pyrrolo[2,3-f][1,4]diazocine-2,11(3H)-dione]
- pKi: 8.52

SMILES: Cc1cc(C(F)(F)F)cc(N2C(=O)C[C@@H]3CN(CCN4CCN(C)C[C@@H]4C)c4c(Cl)cccc4N(C)C(=O)[C@H]32)n1 [Example 10, (3aR,11aS)-6-Chloro-5-(2-((S)-2,4-dimethylpiperazin-1-yl)ethyl)-10-methyl-1-(6-methyl-4-(trifluoromethyl)pyridin-2-yl)-1,3a,4,5,10,11a-hexahydro-2H-benzo[b]pyrrolo[2,3-f][1,4]diazocine-2,11(3H)-dione Hydrochloride]
- pKi: 8.66

SMILES: Cc1cc(C(F)(F)F)cc(N2C(=O)C[C@@H]3CN(Cc4cn5c(n4)[C@H](C)N(C)CC5)c4c(C)cccc4N(C)C(=O)[C@H]32)n1 (racemic) [Example 116b, (3aR,11aS)-5-(((S/R)-7,8-Dimethyl-5,6,7,8-tetrahydroimidazo[1,2-a]pyrazin-2-yl)methyl)-6,10-dimethyl-1-(6-methyl-4-(trifluoromethyl)pyridin-2-yl)-1,3a,4,5,10,11a-hexahydro-2H-benzo[b]pyrrolo[2,3-f][1,4]diazocine-2,11(3H)-dione]
- pKi: 9.38

SMILES: Cc1cc(C(F)(F)F)cc(N2C(=O)C[C@@H]3CN(CC4CCNCC4)c4c(Cl)cccc4N(C)C(=O)[C@H]32)n1 [Example 78, (3aR,11aS)-6-Chloro-10-methyl-1-(6-methyl-4-(trifluoromethyl)pyridin-2-yl)-5-(piperidin-4-ylmethyl)-1,3a,4,5,10,11a-hexahydro-2H-benzo[b]pyrrolo[2,3-f][1,4]diazocine-2,11(3H)-dione]
- pKi: 8.96

SMILES: Cc1cc(C(F)(F)F)cc(N2C(=O)C[C@@H]3CN(CCN4CCN(C(=O)[C@@H](C)O)CC4)c4c(C)cccc4N(C)C(=O)[C@H]32)n1 [Example 51, (3aR,11aS)-5-(2-(4-((R)-2-Hydroxypropanoyl)piperazin-1-yl)ethyl)-6,10-dimethyl-1-(6-methyl-4-(trifluoromethyl)pyridin-2-yl)-1,3a,4,5,10,11a-hexahydro-2H-benzo[b]pyrrolo[2,3-f][1,4]diazocine-2,11(3H)-dione hydrochloride]
- pKi: 9.03

SMILES: Cc1cc(C(F)(F)F)cc(N2C(=O)C[C@@H]3CN(CC(O)CN4CCOCC4)c4c(Cl)cccc4N(C)C(=O)[C@H]32)n1 (single isomer, unassigned) [Example 133b]
- pKi: 8.61
